Reference: patent US20260048028A1, “Methods of Use for Disulfiram and Metabolites Thereof” (PS Therapy, Inc., priority 2022, published 2026)

How the values were obtained:
IL-8 mRNA = IL-8 mRNA levels in Aspergillus flavus infected human corneal epithelial cells; type: cell-based; settings: HCE cells infected with A. flavus spores
Experimental: 3 sets of human corneal epithelial (“HCE”) cells were plated and assayed for IL-8 mRNA levels as a control. 9 sets of HC cells were then infected with […] of Aspergillus flavus spores. 16 hours post infection the cells were assayed for IL-8 mRNA levels. 3 sets of HCE cells were then administered DSF in DMSO. Several hours following administration of each, IL-8 mRNA levels were assayed.
3 sets of HCE cells were plated and assayed for IL-8 mRNA levels as a control. 9 sets of HC cells were then infected with […] of Aspergillus flavus spores. 16 hours post infection the cells were assayed for IL-mRNA levels. 3 sets of HCE cells were then each administered NaDDC in water. Several hours following administration of each, IL-8 mRNA levels were assayed.

[1] = system: intercellular adhesion molecule 1 (ICAM1); experiment: Alkali-burn injury in mice, RT-PCR expression of ICAM1 in eyes; type: in vivo; settings: RT-PCR of enucleated eyes after 7 days of topical 300 μM NaDDC three times daily
Experimental: (§1) C57BL/6 mice were divided into three groups, control group 1 (n=6), group 2 (n=6) and group 3 (n=3). Each group consisted of mice with their left eye (“LE”) left undisturbed as a control, while the right eye (“RE”) of all mice in each group was subjected to alkali burn. Prior to inducing alkali burn, mice were anesthetized using an injection of an anesthetic cocktail containing ketamine (20 mg/ml) and xylazine (4 mg/ml) at a dose of approximately […] per 25 g mouse. Topical analgesia was provided using proparacaine hydrochloride (0.5%) on the corneal surface. A round filter paper piece (˜2 mm in diameter) was soaked in a 0.5 M NaOH solution. […]
(§2) On the 7th day following the alkali burn, corneal images were captured using slit microscopy to monitor changes in corneal opacity and neovascularization. The degree of corneal injury was evaluated and scored in a blinded manner by trained observers. Corneal opacity was evaluated using a grading scale ranging from 0 to 4, where 0 represented a completely clear cornea, 1 indicated slight haziness with the iris and pupil easily visible, 2 denoted slight opacity with detectable iris and pupil, 3 indicated significant opacity with difficulty in detecting pupils, and 4 represented complete opacity with no view of the pupil. […]

C57BL/6 mice = experiment: Alkali-burn injury in mice, slit-lamp scoring of corneal opacity and neovascularization; type: in vivo; settings: topical three times daily for 7 days (NaDDC 300 μM); for corneal opacity mean score: grading scale 0 to 4, day 7 after alkali burn; for neovascularization score: scale 0 to 3, day 7 after alkali burn
Experimental: C57BL/6 mice were divided into three groups, control group 1 (n=6), group 2 (n=6) and group 3 (n=3). Each group consisted of mice with their left eye (“LE”) left undisturbed as a control, while the right eye (“RE”) of all mice in each group was subjected to alkali burn. Prior to inducing alkali burn, mice were anesthetized using an injection of an anesthetic cocktail containing ketamine (20 mg/ml) and xylazine (4 mg/ml) at a dose of approximately […] per 25 g mouse. Topical analgesia was provided using proparacaine hydrochloride (0.5%) on the corneal surface. A round filter paper piece (˜2 mm in diameter) was soaked in a 0.5 M NaOH solution. The NaOH-soaked filter paper was gently placed on the central cornea of the RE for precisely 30 seconds, generating an acute alkali burn. Following the removal of the filter paper, the RE was flushed gently with 10 ml of 1×PBS using a 10 ml syringe to ensure thorough removal of residual NaOH. Immediately after the eye flush, the treatment application was initiated for Group 2 and Group 3 mice. Group 1 was left untreated. For Group 2, a drop of 300 μM NaDDC was topically applied to the cornea of the RE. For Group 3, the RE was topically treated with commercially available prednisolone. The treatment was repeated three times daily for a duration of 7 days.
On the 7th day following the alkali burn, corneal images were captured using slit microscopy to monitor changes in corneal opacity and neovascularization. The degree of corneal injury was evaluated and scored in a blinded manner by trained observers. Corneal opacity was evaluated using a grading scale ranging from 0 to 4, where 0 represented a completely clear cornea, 1 indicated slight haziness with the iris and pupil easily visible, 2 denoted slight opacity with detectable iris and pupil, 3 indicated significant opacity with difficulty in detecting pupils, and 4 represented complete opacity with no view of the pupil. The degree of neovascularization was scored on a scale of 0 to 3, with 0 indicating no new vessels, 1 representing new vessels present at the corneal limbus, 2 denoting new vessels extending from the corneal limbus toward the corneal centre, and 3 indicating new vessels spanning the entire corneal centre. At the end of the treatment period, mice from control group 1 and NaDDC treated group 2 were sacrificed and the eyes were enucleated for further analysis, including RT-PCR studies, to investigate the expression levels of tumor necrosis factor alpha (“TNFα”), gasdermin D (“GSDMD”), intercellular adhesion molecule 1 (“ICAM1”) and transforming growth factor beta 1 (“TGFβ1”).

[2] = system: transforming growth factor beta 1 (TGFβ1); experiment: Alkali-burn injury in mice, RT-PCR expression of TGFβ1 in eyes; type: in vivo; settings: RT-PCR of enucleated eyes after 7 days of topical 300 μM NaDDC three times daily
Experimental: as §1, §2

[3] = system: tumor necrosis factor alpha (TNFα); experiment: Alkali-burn injury in mice, RT-PCR expression of TNFα in eyes; type: in vivo; settings: RT-PCR of enucleated eyes after 7 days of topical 300 μM NaDDC three times daily
Experimental: as §1, §2

IL-6 mRNA = IL-6 mRNA levels in HCE cells under hyperosmolarity; type: cell-based, human; settings: 400 milliosmoles, 6 hours post hyperosmolarity induction, −control 290 milliosmoles
Experimental: Sets of HCE cells were plated in iso-osmotic solutions (290 milliosmoles) […] and assayed for IL-8 and IL-6 mRNA levels as a control. Sets of HC cells were subjected to hyperosmolarity conditions (i.e. placed in a solution having an osmolarity of 400 milliosmoles) either with or without NaDDC. 6 hours post hyperosmolarity induction the cells were assayed for IL-mRNA levels.

gasdermin D (GSDMD) = experiment: Alkali-burn injury in mice, RT-PCR expression of GSDMD in eyes; type: in vivo; settings: RT-PCR of enucleated eyes after 7 days of topical 300 μM NaDDC three times daily
Experimental: as §1, §2

[4] = DSF in DMSO given 16 hours post infection
[5] = NaDDC in water given 16 hours post infection

| SMILES | IL-8 mRNA levels (% change from uninfected) (IL-8 mRNA; [4]) | IL-8 mRNA levels (% reduction from water) (IL-8 mRNA; [4]) | ICAM1 expression, % of untreated control group [1] | IL-8 mRNA levels (% increase from uninfected) (IL-8 mRNA; [5]) | IL-8 mRNA levels (% reduction from water) (IL-8 mRNA; [5]) | corneal opacity mean score (C57BL/6 mice) | neovascularization score (C57BL/6 mice) | TGFβ1 expression, % of untreated control group [2] | expression level of TNFα, % of untreated control group [3] | IL-6 mRNA levels (% increase from −control) (IL-6 mRNA) | GSDMD expression, % of untreated control group (gasdermin D (GSDMD)) |
| --- | --- | --- | --- | --- | --- | --- | --- | --- | --- | --- | --- |
| CCN(CC)C(=S)SSC(=S)N(CC)CC [DSF, 1,1′-disulfanediylbis(N,N-diethylmethanethioamide), reference compound] | 21.2% | 88.5% | – | – | – | – | – | – | – | – | – |
| CCN(CC)C(=S)[S-].[Na+] [NaDDC, sodium;N,N-diethylcarbamodithioate] | – | – | 5% | 10.5% | 85.19% | 0.83 | 0 | 28% | 8% | 100% | 42% |
| C[C@]12C=CC(=O)C=C1CC[C@@H]1[C@@H]2[C@@H](O)C[C@@]2(C)[C@H]1CC[C@]2(O)C(=O)CO [prednisolone, reference compound] | – | – | – | – | – | 2.67 | 0 | – | – | – | – |
